Measured values reported in patent US20050164993A1, “Methods of treating allergic reactions” (priority 2002, published 2005).

test system: BALB/c 3T3 (CCL-163) cells; assay: 3T3 Neutral Red uptake phototoxicity assay (with/without UVA); conditions: not given
Description: Streptomycin sulfate ([…]) and penicillin (100 IU/ml) were added to the medium after the cells were treated with test article in 96-well plates.
Serial dilutions of the tetracycline derivatives were prepared in DMSO at concentrations 100× to final testing concentration. The COL dilutions in DMSO were then diluted in Hanks' Balanced Salt Solution (HBSS) for application to the cells. The final DMSO concentration was 1% in treated and control cultures. A dose range finding assay is conducted with eight serial dilutions covering a range of 100-0.03 μg/ml in half log steps. Definitive assays are conducted with 6-8 serial dilutions prepared in quarter log steps, centered on the expected 50% toxicity point as determined in the dose range finding assay. One hundred 100 μg/ml was the highest dose recommended to prevent false negative results from UV absorption by the dosing solutions. One dose range finding and at least two definitive trials were performed on each tetracycline derivative and control compound.
Controls: Each assay included both negative (solvent) and positive controls. Twelve wells of negative control cultures were used on each 96-well plate. Chlorpromazine (Sigma Chemicals) was used as the positive control and was prepared and dosed like the test tetracycline derivatives.
Solar Simulator: A Dermalight SOL 3 solar simulator, equipped with a UVA H1 filter (320-400 nm), was adjusted to the appropriate height. Measurement of energy through the lid of a 96-well microtiter plate was carried out using a calibrated UV radiometer UVA sensor. Simulator height was adjusted to deliver 1.7±0.1 mW/cm^2 of UVA energy (resulting dose was 1 J/cm^2 per 10 minutes of exposure).
Phototoxicity Assay: Duplicate plates were prepared for each test material by seeding 10^4 3T3 cells per well in complete medium 24 hours before treatment. Prior to treatment, the medium was removed, and the cells washed once with 125 μl of prewarmed HBSS. Fifty μl of prewarmed HBSS were added to each well. Fifty μl of each test article dilution were added to the appropriate wells and the plates returned to the incubator for approximately one hour. Six wells were treated with each dose of test or control article on each plate. Following the 1 hr incubation, the plates designated for the photo irradiation were exposed (with the lid on) to 1.7±0.1 mW/cm^2 UVA light for 50±2 minutes at room temperature resulting in an irradiation dose of 5 J/cm^2. Duplicate plates, designated for the measurement of cytotoxicity without light, were kept in the dark room temperature for 50±2 minutes. After the 50 minute exposure period (with or without light) the test article dilutions were decanted from the plates and the cells washed once with 125 μl of HBSS. One hundred μl of medium were added to all wells and the cells incubated as above for 24±1 hours.
After 24 hours of incubation, the medium was decanted and 100 μl of the Neutral Red containing medium were added to each well. The plates were returned to the incubator and incubated for approximately 3 hours. After 3 hours, the medium was decanted and each well rinsed once with 250 μl of HBSS. The plates were blotted to remove the HBSS and 100 μl of Neutral Red Solvent were added to each well. After a minimum of 20 minutes of incubation at room temperature (with shaking), the absorbance at 550 nm was measured with a plate reader, using the mean of the blank outer wells as the reference. Relative survival was obtained by comparing the amount of neutral red taken by each well treated with the test article and positive control to the neutral red taken up by the average of the negative wells (12 wells) on the same plate. The amount of neutral red taken up by the negative control wells is considered to be 100% survival.

CC1c2ccc(NC(=O)CN(C)C)c(O)c2C(=O)C2=C(O)C3(O)C(=O)C(C(N)=O)=C(O)CC3C(O)C21 (stereo not drawn) [COL 802, 9-dimethylaminoacetamido-4-dedimethylaminodoxycycline] and CC(=O)Nc1ccc2c(c1O)C(=O)C1=C(O)C3(O)C(=O)C(C(N)=O)=C(O)CC3C(O)C1C2C (stereo not drawn) [COL 801, 9-acetamido-4-dedimethylaminodoxycycline] are the same in “PIF 1 (photoirritancy factor, earlier software)” value: 1.0 for the first, 1.0 for the second.

First: NC(=O)C1=C(O)C[C@@H]2C[C@@H]3Cc4cccc(O)c4C(=O)C3=C(O)[C@]2(O)C1=O [COL 3, 6-demethyl-6-deoxy-4-dedimethylaminotetracycline]
Second: NC(=O)C1=C(O)CC2CC3Cc4ccc(N)c(O)c4C(=O)C3=C(O)C2(O)C1=O (stereo not drawn) [COL 308, 9-amino-6-demethyl-6-deoxy-4-dedimethylaminotetracycline]
The “PIF 1 (photoirritancy factor, earlier software)” value of the first is higher: 647 for the first, 1.0 for the second.

Going from CC1c2cccc(O)c2C(=O)C2=C(O)C3(O)C(=O)C(C(N)=O)=C(O)CC3C(O)C21 (stereo not drawn) [COL 8, 4-dedimethylaminodoxycycline] to CC1c2ccc(N)c(O)c2C(=O)C2=C(O)C3(O)C(=O)C(C(N)=O)=C(O)CC3C(O)C21 (stereo not drawn) [COL 805, 9-amino-4-dedimethylaminodoxycycline], the “PIF 1 (photoirritancy factor, earlier software)” value falls from 165 to 1.0.

First: O=C(NCN1CCNCC1)C1=C(O)CC2CC3Cc4cccc(O)c4C(=O)C3=C(O)C2(O)C1=O (stereo not drawn) [COL 315, 2-CONHCH2-piperazin-1-yl-6-demethyl-6-deoxy-4-dedimethylaminotetracycline]
Second: O=C(NCN1CCCC1)C1=C(O)CC2CC3Cc4cccc(O)c4C(=O)C3=C(O)C2(O)C1=O (stereo not drawn) [COL 312, 2-CONHCH2-pyrrolidin-1-yl-6-demethyl-6-deoxy-4-dedimethylaminotetracycline]
The “PIF 1 (photoirritancy factor, earlier software)” value of the first is lower: 15.8 for the first, 62.67 for the second.

First: CCCCCCCCCCCCCCCC(=O)Nc1ccc2c(c1O)C(=O)C1=C(O)C3(O)C(=O)C(C(N)=O)=C(O)CC3CC1C2 (stereo not drawn) [COL 311, 9-palmitamide-6-demethyl-6-deoxy-4-dedimethylaminotetracycline]
Second: CN(C)CC(=O)Nc1ccc2c(c1O)C(=O)C1=C(O)C3(O)C(=O)C(C(N)=O)=C(O)CC3CC1C2 (stereo not drawn) [COL 309, 9-dimethylaminoacetamido-6-demethyl-6-deoxy-4-dedimethylaminotetracycline]
The “PIF 1 (photoirritancy factor, earlier software)” value of the first is lower: 1.0 for the first, 5.17 for the second.

First: NC(=O)C1=C(O)CC2CC3Cc4ccc([N+](=O)[O-])c(O)c4C(=O)C3=C(O)C2(O)C1=O (stereo not drawn) [COL 303, 9-nitro-6-demethyl-6-deoxy-4-dedimethylaminotetracycline]
Second: NC(=O)C1=C(O)CC2CC3Cc4c([N+](=O)[O-])ccc(O)c4C(=O)C3=C(O)C2(O)C1=O (stereo not drawn) [COL 302, 7-nitro-6-demethyl-6-deoxy-4-dedimethylaminotetracycline]
The “PIF 1 (photoirritancy factor, earlier software)” value of the first is lower: 5.27 for the first, 23.16 for the second.

Going from O=C(NCN1CCOCC1)C1=C(O)CC2CC3Cc4cccc(O)c4C(=O)C3=C(O)C2(O)C1=O (stereo not drawn) [COL 314, 2-CONHCH2-morpholin-1-yl-6-demethyl-6-deoxy-4-dedimethylaminotetracycline] to O=C(NCN1CCCCC1)C1=C(O)CC2CC3Cc4cccc(O)c4C(=O)C3=C(O)C2(O)C1=O (stereo not drawn) [COL 313, 2-CONHCH2-piperidin-1-yl-6-demethyl-6-deoxy-4-dedimethylaminotetracycline], the “PIF 1 (photoirritancy factor, earlier software)” value rises from 41.1 to 80.27.

Going from CC1c2ccc([N+](=O)[O-])c(O)c2C(=O)C2=C(O)C3(O)C(=O)C(C(N)=O)=C(O)CC3C(O)C21 (stereo not drawn) [COL 804, 9-nitro-4-dedimethylaminodoxycycline] to CC1c2cccc(O)c2C(=O)C2=C(O)C3(O)C(=O)C(C(=O)NCN4CCCC4)=C(O)CC3C(O)C21 (stereo not drawn) [COL 807, 2-CONHCH2-pyrrolidin-1-yl-4-dedimethylaminodoxycycline], the “PIF 1 (photoirritancy factor, earlier software)” value rises from 1.0 to 40.4.

Going from CC1c2cccc(O)c2C(=O)C2=C(O)C3(O)C(=O)C(C(=O)NCN4CCCCC4)=C(O)CC3C(O)C21 (stereo not drawn) [COL 808, 2-CONHCH2-piperidin-1-yl-4-dedimethylaminodoxycycline] to NC(=O)C1=C(O)CC2CC3Cc4c(N)ccc(O)c4C(=O)C3=C(O)C2(O)C1=O (stereo not drawn) [COL 307, 7-amino-6-demethyl-6-deoxy-4-dedimethylaminotetracycline], the “PIF 1 (photoirritancy factor, earlier software)” value falls from 46.45 to 1.17.

In the case of CN(C)c1ccc2c(c1O)C(=O)C1=C(O)C3(O)C(=O)C(C(N)=O)=C(O)CC3CC1C2 (stereo not drawn) [COL 306, 9-dimethylamino-6-demethyl-6-deoxy-4-dedimethylaminotetracycline], the “PIF 1 (photoirritancy factor, earlier software)” value is reported as 1.64.

First: NC(=O)C1=C(O)C[C@@H]2C[C@@H]3Cc4cccc(O)c4C(=O)C3=C(O)[C@]2(O)C1=O [COL 3, 6-demethyl-6-deoxy-4-dedimethylaminotetracycline]
Second: NC(=O)C1=C(O)CC2CC3Cc4ccc([N+](=O)[O-])c(O)c4C(=O)C3=C(O)C2(O)C1=O (stereo not drawn) [COL 303, 9-nitro-6-demethyl-6-deoxy-4-dedimethylaminotetracycline]
The “PIF 2 (photoirritancy factor, OECD Draft Guideline 432)” value of the first is higher: 84.72 for the first, 13.82 for the second.

Going from CC1c2cccc(O)c2C(=O)C2=C(O)C3(O)C(=O)C(C(N)=O)=C(O)CC3C(O)C21 (stereo not drawn) [COL 8, 4-dedimethylaminodoxycycline] to CN(C)c1ccc(O)c2c1CC1CC3CC(O)=C(C(N)=O)C(=O)C3(O)C(O)=C1C2=O (stereo not drawn) [COL 10, 4-dedimethylaminominocycline], the “PIF 2 (photoirritancy factor, OECD Draft Guideline 432)” value falls from 82.61 to 2.04.

Going from O=C(NCN1CCNCC1)C1=C(O)CC2CC3Cc4cccc(O)c4C(=O)C3=C(O)C2(O)C1=O (stereo not drawn) [COL 315, 2-CONHCH2-piperazin-1-yl-6-demethyl-6-deoxy-4-dedimethylaminotetracycline] to O=C(NCN1CCCC1)C1=C(O)CC2CC3Cc4cccc(O)c4C(=O)C3=C(O)C2(O)C1=O (stereo not drawn) [COL 312, 2-CONHCH2-pyrrolidin-1-yl-6-demethyl-6-deoxy-4-dedimethylaminotetracycline], the “PIF 2 (photoirritancy factor, OECD Draft Guideline 432)” value rises from 35.30 to 75.11.

Compared with CN(C)CC(=O)Nc1ccc2c(c1O)C(=O)C1=C(O)C3(O)C(=O)C(C(N)=O)=C(O)CC3CC1C2 (stereo not drawn) [COL 309, 9-dimethylaminoacetamido-6-demethyl-6-deoxy-4-dedimethylaminotetracycline], CN(C)c1ccc2c(c1O)C(=O)C1=C(O)C3(O)C(=O)C(C(N)=O)=C(O)CC3CC1C2 (stereo not drawn) [COL 306, 9-dimethylamino-6-demethyl-6-deoxy-4-dedimethylaminotetracycline] is lower in “PIF 2 (photoirritancy factor, OECD Draft Guideline 432)” value: 12.87 for the first, 1.56 for the second.

Going from CN(C)c1cc([N+](=O)[O-])c(O)c2c1CC1CC3CC(O)=C(C(N)=O)C(=O)C3(O)C(O)=C1C2=O (stereo not drawn) [COL 1002, 9-nitro-4-dedimethylaminominocycline] to NC(=O)C1=C(O)CC2CC3Cc4c([N+](=O)[O-])ccc(O)c4C(=O)C3=C(O)C2(O)C1=O (stereo not drawn) [COL 302, 7-nitro-6-demethyl-6-deoxy-4-dedimethylaminotetracycline], the “PIF 2 (photoirritancy factor, OECD Draft Guideline 432)” value rises from 1.35 to 23.32.

Going from O=C(NCN1CCOCC1)C1=C(O)CC2CC3Cc4cccc(O)c4C(=O)C3=C(O)C2(O)C1=O (stereo not drawn) [COL 314, 2-CONHCH2-morpholin-1-yl-6-demethyl-6-deoxy-4-dedimethylaminotetracycline] to O=C(NCN1CCCCC1)C1=C(O)CC2CC3Cc4cccc(O)c4C(=O)C3=C(O)C2(O)C1=O (stereo not drawn) [COL 313, 2-CONHCH2-piperidin-1-yl-6-demethyl-6-deoxy-4-dedimethylaminotetracycline], the “PIF 2 (photoirritancy factor, OECD Draft Guideline 432)” value falls from 89.48 to 58.22.

same assay, conditions: 3T3 cells, 5 J/cm^2 UVA vs dark; <0.1 nonphototoxin, 0.1 to <0.15 probable, >=0.15 clear phototoxin

In the case of CN(C)[C@@H]1C(=O)C(C(N)=O)=C(O)[C@@]2(O)C(=O)C3=C(O)c4c(O)cccc4[C@@](C)(O)[C@H]3C[C@@H]12 [Tetracycline, reference compound], the “MPE (mean photo effect)” value is reported as 0.340.

same assay, conditions: IC50(-UVA)/IC50(+UVA), 3T3 cells; >5 indicative of phototoxic potential

With CN(C)[C@@H]1C(=O)C(C(N)=O)=C(O)[C@@]2(O)C(=O)C3=C(O)c4c(O)cccc4[C@@](C)(O)[C@H]3C[C@@H]12 [Tetracycline, reference compound] the “PIF 1 (photoirritancy factor, earlier software)” value was 5.38.

same assay, conditions: mouse

Compared with CN(C)CCCN1c2ccccc2Sc2ccc(Cl)cc21 [Chlorpromazine, reference compound], C[C@H]1c2cccc(O)c2C(=O)C2=C(O)[C@]3(O)C(=O)C(C(N)=O)=C(O)[C@@H](N(C)C)[C@@H]3[C@@H](O)[C@@H]21 [Doxycycline, 6α-deoxy-5-hydroxytetracycline, reference compound] is lower in “PIF 2 (photoirritancy factor, OECD Draft Guideline 432)” value: 40.38 for the first, 26.71 for the second.

In the case of C[C@H]1c2cccc(O)c2C(=O)C2=C(O)[C@]3(O)C(=O)C(C(N)=O)=C(O)[C@@H](N(C)C)[C@@H]3[C@@H](O)[C@@H]21 [Doxycycline, 6α-deoxy-5-hydroxytetracycline, reference compound], the “PIF 1 (photoirritancy factor, earlier software)” value is reported as 23.37.

test system: not given; assay: not given; conditions: based on steady-state pharmacokinetics; cited from earlier work

CN(C)c1ccc(O)c2c1C[C@H]1C[C@H]3[C@H](N(C)C)C(O)=C(C(N)=O)C(=O)[C@@]3(O)C(O)=C1C2=O [Minocycline, 7-dimethylaminotetracycline] and C[C@H]1c2cccc(O)c2C(=O)C2=C(O)[C@]3(O)C(=O)C(C(N)=O)=C(O)[C@@H](N(C)C)[C@@H]3[C@@H](O)[C@@H]21 [Doxycycline, 6α-deoxy-5-hydroxytetracycline, reference compound] are within 1.5-fold of each other in “plasma antibiotic threshold level” value: 0.8 µg/mL for the first, 1.0 µg/mL for the second.

For CN(C)[C@@H]1C(=O)C(C(N)=O)=C(O)[C@@]2(O)C(=O)C3=C(O)c4c(O)cccc4[C@@](C)(O)[C@H]3C[C@@H]12 [Tetracycline, reference compound], the “plasma antibiotic threshold level” value is given as 0.5 µg/mL.
